In BindingDB's records for doi:10.1021/bi035098j (Merck Research Laboratories, 2003):

Tests used:
[1] = molecular target: T1, Tyrosine-protein phosphatase non-receptor type 2 (Homo sapiens, UniProt P17706); assay: PTP1B and TCPTP Inhibition Assay; conditions: pH 6.3; 22 °C
T1 sequence (P17706 whole entry): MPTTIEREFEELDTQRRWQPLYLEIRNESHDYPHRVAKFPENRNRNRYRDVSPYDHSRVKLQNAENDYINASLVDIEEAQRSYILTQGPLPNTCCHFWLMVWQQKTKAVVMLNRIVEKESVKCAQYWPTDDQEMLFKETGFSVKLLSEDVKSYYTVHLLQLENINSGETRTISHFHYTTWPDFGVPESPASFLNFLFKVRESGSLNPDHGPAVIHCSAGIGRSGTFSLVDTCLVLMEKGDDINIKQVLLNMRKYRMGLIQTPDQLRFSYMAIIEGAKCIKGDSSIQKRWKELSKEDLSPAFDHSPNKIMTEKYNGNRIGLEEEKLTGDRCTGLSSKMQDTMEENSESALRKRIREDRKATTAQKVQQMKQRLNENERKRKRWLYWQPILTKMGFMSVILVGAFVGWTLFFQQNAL

[2] = molecular target: T2, Tyrosine-protein phosphatase non-receptor type 1 [1-298] (Homo sapiens, UniProt P18031); assay: PTP1B and TCPTP Inhibition Assay; conditions: pH 6.3; 22 °C
T2 construct: 1-298
T2 sequence (P18031 whole entry): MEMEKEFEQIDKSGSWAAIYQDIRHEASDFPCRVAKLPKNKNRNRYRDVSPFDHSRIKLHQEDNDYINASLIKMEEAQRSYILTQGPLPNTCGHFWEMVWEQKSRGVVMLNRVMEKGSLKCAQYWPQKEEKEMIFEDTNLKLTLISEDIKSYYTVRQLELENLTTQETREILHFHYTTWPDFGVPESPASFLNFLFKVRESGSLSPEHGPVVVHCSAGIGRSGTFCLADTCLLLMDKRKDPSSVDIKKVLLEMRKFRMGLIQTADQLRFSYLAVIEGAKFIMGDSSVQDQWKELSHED

Row | Compound | IC50 [1] [µM] | IC50 [2] [µM]
1 | CC(C)CCOc1ccc(-c2ccc(CC(Cc3ccc(C(F)(F)P(=O)(O)O)cc3)(c3ccccc3)n3nnc4ccccc43)cc2)cc1P(=O)(O)O (centres undefined) [5-{4-[2-(1H-1,2,3-benzotriazol-1-yl)-3-{4-[difluoro(phosphono)methyl]phenyl}-2-phenylpropyl]phenyl}-2-(3-methylbutoxy)benzene-1-phosphonic acid] | 0.02 | 0.006
2 | COCOC(CC(C)C)c1ccc2cc(-c3ccc(CC(Cc4ccc(C(F)(F)P(=O)(O)O)cc4)(c4ccccc4)n4nnc5ccccc54)cc3)cc(P(=O)(O)O)c2n1 (centres undefined) [6-{4-[2-(1H-1,2,3-benzotriazol-1-yl)-3-{4-[difluoro(phosphono)methyl]phenyl}-2-phenylpropyl]phenyl}-2-[1-(methoxymethoxy)-3-methylbutyl]quinoline-8-phosphonic acid] | 0.021 | 0.011
3 | COC(CC(C)C)c1ccc2cc(-c3ccc(CC(Cc4ccc(C(F)(F)P(=O)(O)O)cc4)(c4ccccc4)n4nnc5ccccc54)cc3)cc(P(=O)(O)O)c2n1 (centres undefined) [6-{4-[2-(1H-1,2,3-benzotriazol-1-yl)-3-{4-[difluoro(phosphono)methyl]phenyl}-2-phenylpropyl]phenyl}-2-(1-methoxy-3-methylbutyl)quinoline-8-phosphonic acid] | 0.036 | –
4 | COc1ccc(-c2ccc(CC(Cc3ccc(C(F)(F)P(=O)(O)O)cc3)(c3ccccc3)n3nnc4ccccc43)cc2)cc1P(=O)(O)O (centres undefined) [5-{4-[2-(1H-1,2,3-benzotriazol-1-yl)-3-{4-[difluoro(phosphono)methyl]phenyl}-2-phenylpropyl]phenyl}-2-methoxybenzene-1-phosphonic acid] | 0.031 | 0.01
5 | O=P(O)(O)C(F)(F)c1ccc(CC(Cc2ccc(C(F)(F)P(=O)(O)O)cc2)(c2ccccc2)n2nnc3ccccc32)cc1 | 0.011 | –
6 | O=P(O)(O)C(F)(F)c1ccc(C[C@H](c2ccccc2)n2nnc3ccccc32)cc1 [({4-[(2R)-2-(1H-1,2,3-benzotriazol-1-yl)-2-phenylethyl]phenyl}difluoromethyl)phosphonic acid] | – | 8.04
7 | Cc1ccc2cc(-c3ccc(CC(Cc4ccc(C(F)(F)P(=O)(O)O)cc4)(c4ccccc4)n4nnc5ccccc54)cc3)cc(P(=O)(O)O)c2n1 (centres undefined) | 0.02 | –
8 | CC(C)CC(O)c1ccc2cc(-c3ccc(CC(Cc4ccc(C(F)(F)P(=O)(O)O)cc4)(c4ccccc4)n4nnc5ccccc54)cc3)cc(P(=O)(O)O)c2n1 (centres undefined) [6-{4-[2-(1H-1,2,3-benzotriazol-1-yl)-3-{4-[difluoro(phosphono)methyl]phenyl}-2-phenylpropyl]phenyl}-2-(1-hydroxy-3-methylbutyl)quinoline-8-phosphonic acid] | 0.017 | 0.006
9 | O=P(O)(O)C(F)(F)c1ccc(CC(Cc2ccc(-c3ccccc3)cc2)(c2ccccc2)n2nnc3ccccc32)cc1 (centres undefined) [({4-[2-(1H-1,2,3-benzotriazol-1-yl)-2-phenyl-3-(4-phenylphenyl)propyl]phenyl}difluoromethyl)phosphonic acid] | 0.024 | 0.038
